From the CheMixHub viscosity set
± gives the uncertainty stated by the source.

Assay: xn = mol fraction of the nth substance listed

SMILES: CN(C)P(=O)(N(C)C)N(C)C + CC(C)O
- viscosity (303.15 K, 101.3 kPa, x1 = 0.0867): 1.855 ± 0.02 mPa·s
- viscosity (303.15 K, 101.3 kPa, x1 = 0.1008): 1.87 ± 0.021 mPa·s
- viscosity (303.15 K, 101.3 kPa, x1 = 0.1839): 1.937 ± 0.023 mPa·s
- viscosity (303.15 K, 101.3 kPa, x1 = 0.2608): 1.991 ± 0.026 mPa·s
- viscosity (303.15 K, 101.3 kPa, x1 = 0.3481): 2.075 ± 0.03 mPa·s
- viscosity (303.15 K, 101.3 kPa, x1 = 0.4017): 2.136 ± 0.033 mPa·s
- viscosity (303.15 K, 101.3 kPa, x1 = 0.5056): 2.279 ± 0.039 mPa·s
- viscosity (303.15 K, 101.3 kPa, x1 = 0.6052): 2.407 ± 0.045 mPa·s
- viscosity (303.15 K, 101.3 kPa, x1 = 0.705): 2.547 ± 0.053 mPa·s
- viscosity (303.15 K, 101.3 kPa, x1 = 0.7928): 2.668 ± 0.059 mPa·s
- viscosity (303.15 K, 101.3 kPa, x1 = 0.8899): 2.791 ± 0.067 mPa·s

SMILES: Cc1cccc(C)n1 + C1CCCCC1
- viscosity (303 K, 101 kPa, x1 = 0.104): 0.727 ± 0.0053 mPa·s
- viscosity (303 K, 101 kPa, x1 = 0.198): 0.6904 ± 0.0053 mPa·s
- viscosity (303 K, 101 kPa, x1 = 0.306): 0.67 ± 0.0054 mPa·s
- viscosity (303 K, 101 kPa, x1 = 0.4003): 0.6636 ± 0.0057 mPa·s
- viscosity (303 K, 101 kPa, x1 = 0.503): 0.6619 ± 0.006 mPa·s
- viscosity (303 K, 101 kPa, x1 = 0.6001): 0.6624 ± 0.0064 mPa·s
- viscosity (303 K, 101 kPa, x1 = 0.705): 0.6771 ± 0.0069 mPa·s
- viscosity (303 K, 101 kPa, x1 = 0.799): 0.6933 ± 0.0074 mPa·s
- viscosity (303 K, 101 kPa, x1 = 0.898): 0.7297 ± 0.0082 mPa·s
- viscosity (313 K, 101 kPa, x1 = 0.104): 0.6341 ± 0.0047 mPa·s
- viscosity (313 K, 101 kPa, x1 = 0.198): 0.6026 ± 0.0047 mPa·s
- viscosity (313 K, 101 kPa, x1 = 0.306): 0.5879 ± 0.0049 mPa·s
- viscosity (313 K, 101 kPa, x1 = 0.4003): 0.58 ± 0.005 mPa·s
- viscosity (313 K, 101 kPa, x1 = 0.503): 0.5789 ± 0.0053 mPa·s
- viscosity (313 K, 101 kPa, x1 = 0.6001): 0.5888 ± 0.0057 mPa·s
- viscosity (313 K, 101 kPa, x1 = 0.705): 0.601 ± 0.0062 mPa·s
- viscosity (313 K, 101 kPa, x1 = 0.799): 0.615 ± 0.0066 mPa·s
- viscosity (313 K, 101 kPa, x1 = 0.898): 0.6426 ± 0.0073 mPa·s
- viscosity (323 K, 101 kPa, x1 = 0.104): 0.5572 ± 0.0042 mPa·s
- viscosity (323 K, 101 kPa, x1 = 0.198): 0.5372 ± 0.0043 mPa·s
- viscosity (323 K, 101 kPa, x1 = 0.306): 0.5288 ± 0.0044 mPa·s
- viscosity (323 K, 101 kPa, x1 = 0.4003): 0.5212 ± 0.0046 mPa·s
- viscosity (323 K, 101 kPa, x1 = 0.503): 0.5181 ± 0.0048 mPa·s
- viscosity (323 K, 101 kPa, x1 = 0.6001): 0.5208 ± 0.0051 mPa·s
- viscosity (323 K, 101 kPa, x1 = 0.705): 0.5361 ± 0.0056 mPa·s
- viscosity (323 K, 101 kPa, x1 = 0.799): 0.5491 ± 0.006 mPa·s
- viscosity (323 K, 101 kPa, x1 = 0.898): 0.5758 ± 0.0066 mPa·s

SMILES: Cc1cccc(C)n1 + c1ccccc1
- viscosity (303 K, 101 kPa, x1 = 0.0985): 0.5677 ± 0.0041 mPa·s
- viscosity (303 K, 101 kPa, x1 = 0.1989): 0.58 ± 0.0043 mPa·s
- viscosity (303 K, 101 kPa, x1 = 0.2996): 0.607 ± 0.0047 mPa·s
- viscosity (303 K, 101 kPa, x1 = 0.3945): 0.6191 ± 0.0051 mPa·s
- viscosity (303 K, 101 kPa, x1 = 0.5025): 0.6385 ± 0.0056 mPa·s
- viscosity (303 K, 101 kPa, x1 = 0.5994): 0.6614 ± 0.0062 mPa·s
- viscosity (303 K, 101 kPa, x1 = 0.6976): 0.6823 ± 0.0068 mPa·s
- viscosity (303 K, 101 kPa, x1 = 0.8006): 0.7108 ± 0.0075 mPa·s
- viscosity (303 K, 101 kPa, x1 = 0.9013): 0.7403 ± 0.0083 mPa·s
- viscosity (313 K, 101 kPa, x1 = 0.0985): 0.501 ± 0.0037 mPa·s
- viscosity (313 K, 101 kPa, x1 = 0.1989): 0.514 ± 0.0039 mPa·s
- viscosity (313 K, 101 kPa, x1 = 0.2996): 0.5301 ± 0.0042 mPa·s
- viscosity (313 K, 101 kPa, x1 = 0.3945): 0.5472 ± 0.0046 mPa·s
- viscosity (313 K, 101 kPa, x1 = 0.5025): 0.5654 ± 0.005 mPa·s
- viscosity (313 K, 101 kPa, x1 = 0.5994): 0.5824 ± 0.0055 mPa·s
- viscosity (313 K, 101 kPa, x1 = 0.6976): 0.6012 ± 0.006 mPa·s
- viscosity (313 K, 101 kPa, x1 = 0.8006): 0.6267 ± 0.0067 mPa·s
- viscosity (313 K, 101 kPa, x1 = 0.9013): 0.648 ± 0.0073 mPa·s
- viscosity (323 K, 101 kPa, x1 = 0.0985): 0.4471 ± 0.0034 mPa·s
- viscosity (323 K, 101 kPa, x1 = 0.1989): 0.4595 ± 0.0036 mPa·s
- viscosity (323 K, 101 kPa, x1 = 0.2996): 0.4735 ± 0.0038 mPa·s
- viscosity (323 K, 101 kPa, x1 = 0.3945): 0.4858 ± 0.0041 mPa·s
- viscosity (323 K, 101 kPa, x1 = 0.5025): 0.5011 ± 0.0045 mPa·s
- viscosity (323 K, 101 kPa, x1 = 0.5994): 0.5177 ± 0.0049 mPa·s
- viscosity (323 K, 101 kPa, x1 = 0.6976): 0.5355 ± 0.0054 mPa·s
- viscosity (323 K, 101 kPa, x1 = 0.8006): 0.5569 ± 0.006 mPa·s
- viscosity (323 K, 101 kPa, x1 = 0.9013): 0.5778 ± 0.0066 mPa·s
